Experimental data taken from ChEMBL document CHEMBL1157938, “Cytotoxicity and inhibition of DNA topoisomerase I of polyhydroxylated triterpenoids and triterpenoid glycosides” (Bioorg Med Chem Lett, 2010).

How the values were obtained:
[1] = target: T1, DNA topoisomerase 1 (Rattus norvegicus, UniProt Q9WUL0); experiment: Inhibition of rat liver DNA topoisomerase 1 treated simultaneously with DNA
T1 sequence (Q9WUL0 whole entry): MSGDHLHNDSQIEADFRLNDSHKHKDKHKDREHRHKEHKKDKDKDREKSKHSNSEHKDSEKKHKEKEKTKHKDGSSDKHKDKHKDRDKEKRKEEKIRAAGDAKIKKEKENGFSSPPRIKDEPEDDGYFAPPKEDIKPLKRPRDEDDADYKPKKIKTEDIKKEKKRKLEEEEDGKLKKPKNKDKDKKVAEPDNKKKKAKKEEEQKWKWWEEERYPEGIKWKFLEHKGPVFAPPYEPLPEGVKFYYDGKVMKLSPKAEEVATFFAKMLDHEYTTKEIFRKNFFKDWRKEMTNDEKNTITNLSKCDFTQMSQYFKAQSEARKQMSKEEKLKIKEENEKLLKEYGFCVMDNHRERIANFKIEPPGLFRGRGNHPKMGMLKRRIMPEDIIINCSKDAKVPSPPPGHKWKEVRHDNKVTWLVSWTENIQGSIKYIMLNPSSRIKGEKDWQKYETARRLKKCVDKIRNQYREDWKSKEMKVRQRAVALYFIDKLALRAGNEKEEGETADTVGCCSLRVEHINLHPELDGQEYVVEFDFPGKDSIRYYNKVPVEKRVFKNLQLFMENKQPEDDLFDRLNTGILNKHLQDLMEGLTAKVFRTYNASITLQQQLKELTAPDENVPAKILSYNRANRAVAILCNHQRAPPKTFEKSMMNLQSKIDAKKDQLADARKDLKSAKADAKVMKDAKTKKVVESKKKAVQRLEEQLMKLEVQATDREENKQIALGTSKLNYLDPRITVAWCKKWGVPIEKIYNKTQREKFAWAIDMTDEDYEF

[2] = Inhibition of Leishmania donovani DNA topoisomerase 1 preincubated before addition of DNA
[3] = Inhibition of Leishmania donovani DNA topoisomerase 1 treated simultaneously with DNA
[4] = target: T1, DNA topoisomerase 1; experiment: Inhibition of rat liver DNA topoisomerase 1 preincubated before addition of DNA

O=c1cc(-c2ccc(O)c(O)c2)oc2cc(O)cc(O)c12 [LUTEOLIN]
IC50 [1]: 5 µM | IC50 [2]: 2.5 µM | IC50 [3]: 14 µM | IC50 [4]: 0.66 µM
